Experimental data as given in US10617612B2, “Composition comprising decanal or as active ingredients for preventing hair loss or stimulating hair growth” (INDUSTRY-ACADEMIC COOPERATION FOUNDATION, YONSEI UNIVERSITY, priority 2016, dated 2020).

Columns and labels:
C57BL/6N mice = test: Hair regrowth in mice with back hair removed, skin application (visual observation, hair length); assay type: in vivo; settings: 3 mg/mouse/day on back skin once a day
Method: To visually confirm the state of hair growth, after the animals were lightly anesthetized with ether, the back was photographed, at the end of one week, two weeks, three weeks, and four weeks after application begins, Hair length was measured using a ruler to evaluate the degree of hair growth.

[1] = test system: vascular endothelial growth factor (VEGF); test: RT-PCR gene expression in back skin tissue; assay type: in vivo, mouse; settings: 4 weeks application
Method: (§1) To quantitatively analyze total RNA in skin tissue of experimental animal, 1 mL of Trizol solution was added to 50-100 mg of skin tissue and homogenized, followed by centrifugation at 12,000×g for 10 minutes at 4° C. After transferring the supernatant liquid to a new tube, 200 μl of chloroform was added and the mixture was vigorously shaken. This process above was repeated twice, then the supernatant liquid was transferred to a new tube and isoprophanol and the supernatant liquid were added at a ratio of 1:1. The mixture was shaken 10 times and then allowed to stand at room temperature for 10 minutes, and the supernatant liquid was removed after centrifugation at 12,000×g for 10 minutes at 4° C., and 1 ml of 70% ethanol was added to the remaining precipitate, and the precipitate was centrifuged at 7,500×g and 4° C. for 5 minutes. After removing the ethanol, the tube containing the RNA precipitate was dried at room temperature for 5 minutes, and the RNA pellet was dissolved using nuclease free water. The concentration of RNA extracted at 260 nm and 280 nm wavelengths was measured using a UV/VIS spectrophotometer (Beckman coulter, DU730), and agarose gel electrophoresis was performed to confirm the integrity of the RNA sample.
(§2) cDNA was synthesized by performing reverse transcription using oligo dT primer and superscript reverse transcriptase (GIBCOBRL, Gaithersburg, Md., USA) after RNA isolation. The cDNA obtained by reverse transcription was determined as a template, and PCR was performed using the 5′ and 3′ flanking sequence of the gene cDNA to be amplified as primers. In this case, primers required were synthesized by a manufacture specialized company of primers (Bionia Co., Ltd., Korea), and the primer sequences were illustrated in Table 1 below. 2 μl of the reacted cDNA reaction mixture and 2.5 units of Taq polymerase (Takara, Japan) were added to a mixture prepared by adding 5 μl of 10× reaction buffer [100 mM KCL, 20 mM Tris-HCL (pH 8.0), 2.5 mM MgCl2], 4 μl of 10 mM dNTP, and 1 μl each of 0.2 μM sense and antisense primer, and the volume was adjusted using 50 μl of distilled water, then PCR was performed using a PCR instrument. […] Since 1 μl of the amplified product was electrophoresed on 1% agarose gel to check the DNA band, gene expression level was evaluated.
(§3) In addition, to investigate hair growth promoting action mechanism of Decanal, the expression change of endocrine factors affecting hair growth was evaluated. The gene expression level of insulin-like growth factor 1 (IGF1), vascular endothelial growth factor (VEGF), hepatocyte growth factor (HGF), and keratinocyte growth factor (KGF), which were growth factors affecting hair growth promotion in back skin tissue, was evaluated. […]

[2] = test system: hepatocyte growth factor (HGF); test: RT-PCR gene expression in back skin tissue; assay type: in vivo, mouse; settings: 4 weeks application
Method: as §1, §2, §3

[3] = test system: keratinocyte growth factor (KGF); test: RT-PCR gene expression in back skin tissue; assay type: in vivo, mouse; settings: 4 weeks application
Method: as §1, §2, §3

[4] = test system: insulin-like growth factor 1 (IGF1); test: RT-PCR gene expression in back skin tissue; assay type: in vivo, mouse; settings: 4 weeks application
Method: as §1, §2, §3

β-catenin [5] = test: Western blot of back skin tissue; assay type: in vivo, mouse; settings: 4 weeks application
Method: A predetermined amount of visceral fat or liver tissue was homogenized with liquid nitrogen and lysis buffer in a mortar, and then centrifuged at 13,000×g at 4° C. for 20 minutes. And the middle layer was taken and the protein was quantified by the Bradford method. 50 μg of protein was electrophoresed on SDS polyacrylamide gel, electro blotted onto PVDF hyper film, and reacted with β-catenin and β-actin antibody (Cell Signaling Technology, Danvers, Mass., USA), respectively. Signals of each protein were visualized using a chemiluminescent detection system (Amersham) and the band thickness was quantified using Quantity One Analysis Software (Bo-Rad Laboratories).
The Wnt/β-catenin Signal transduction pathway is known to be involved in promoting entry into the anagen by regulating hair follicle cycle. The expression level of β-catenin was analyzed by western blotting in the back skin tissues in order to determine whether the signal transduction pathway related to hair growth promotion was activated.

[6] = test system: nematode parasitic on plant roots; settings: reported; cited from earlier work
[7] = test system: GSK3β (glycogen synthase kinase 3β); test: RT-PCR gene expression in back skin tissue; assay type: in vivo, mouse; settings: 4 weeks application
Method: as §1
(§4) cDNA was synthesized by performing reverse transcription using oligo dT primer and superscript reverse transcriptase (GIBCOBRL, Gaithersburg, Md., USA) after RNA isolation. The cDNA obtained by reverse transcription was determined as a template, and PCR was performed using the 5′ and 3′ flanking sequence of the gene cDNA to be amplified as primers. In this case, primers required were synthesized by a manufacture specialized company of primers (Bionia Co., Ltd., Korea), and the primer sequences were illustrated in Table 1 below. 2 μl of the reacted cDNA reaction mixture and 2.5 units of Taq polymerase (Takara, Japan) were added to a mixture prepared by adding 5 μl of 10× reaction buffer [100 mM KCL, 20 mM Tris-HCL (pH 8.0), 2.5 mM MgCl2], 4 μl of 10 mM dNTP, and 1 μl each of 0.2 μM sense and antisense primer, and the volume was adjusted using 50 μl of distilled water, then PCR was performed using a PCR instrument. PCR conditions were set at 94° C. for 4 minutes, 94° C. for 30 seconds, 30 cycles [52° C. for 30 seconds, 72° C. for 45 seconds] and 72° C. for 10 minutes. Since 1 μl of the amplified product was electrophoresed on 1% agarose gel to check the DNA band, gene expression level was evaluated.
(§5) The expression change of Wnt/β-catenin signal transduction material which was known as hair growth promotion mechanism in the back skin tissue of the mice to which the experimental material was applied for 4 weeks, was analyzed by RT-PCR.

Axin = test: RT-PCR gene expression in back skin tissue; assay type: in vivo, mouse; settings: 4 weeks application
Method: as §1, §4, §5

[8] = test system: FZD1 (frizzled receptor 1); test: RT-PCR gene expression in back skin tissue; assay type: in vivo, mouse; settings: 4 weeks application
Method: as §1, §4, §5

β-catenin [9] = test: RT-PCR gene expression in back skin tissue; assay type: in vivo, mouse; settings: 4 weeks application
Method: as §1, §4, §5

Wnt10b = test: RT-PCR gene expression in back skin tissue; assay type: in vivo, mouse; settings: 4 weeks application
Method: as §1, §4, §5

[10] = test system: LRP5 (low-density lipoprotein receptor-related protein 5); test: RT-PCR gene expression in back skin tissue; assay type: in vivo, mouse; settings: 4 weeks application
Method: as §1, §4, §5

[11] = test system: embryos of sea urchins and copepods; settings: reported physiological activity; cited from earlier work
[12] = test system: hair follicles of back skin; test: Histological analysis of back skin (Hematoxylin-Eosin, hair follicle number and diameter); assay type: in vivo; settings: back skin after 4 weeks of application, 3 mg/mouse/day
Description: After 4 weeks of application, the animals were sacrificed and the back skin tissue sample was extracted with scissors and forceps around the area where the experimental material was applied, and fixed with formalin. After each step was dehydrated with alcohol and xylene, the back skin tissue sample was embedded with paraffin, and was cut into 5 μm slice using a microtome, and then paraffin was removed with alcohol and xylene. […] A pathology speculum specialist was examined to evaluate the hair growth cycle, and quantity of hair follicle and diameter were measured on an optical microscope.
The results of measurement of the hair follicle number in each experimental group under an optical microscope of magnification of 40 are illustrated in FIG. 3.

[13] = Measurement of body weight change; settings: 3 mg/mouse/day applied to back skin once a day
Method: The animals were kept in a temperature of 21±2.0° C., relative humidity of 50±5%, and 12 hours of day and night cycles. During the experiment, the mice were fed with a regular solid feed (chow) with water freely.
To examine the effect of promoting hair growth, 8-week-old mouse of telogen hair showing pink color of dorsal skin was used. After removing the hair of the mouse backing using a clipper for a mouse, the sample was applied once a day at 4:00 PM for four weeks. Decanal (3 mg/mouse/day) which is experimental material and minoxidil (3 mg/mouse/day) used as a reference drug were dissolved in vehicle (ethanol:water:propylene glycol=5:3:2) and applied, and the vehicle only was applied to the negative control group.
The body weight of the experimental animals was measured weekly from immediately before application of the hair growth treatment to the end of application.

**Q.** Which “Increase of hair length compared to negative control after 4 weeks” value (C57BL/6N mice; 4 weeks, p<0.001) does the source give for `CCCCCCCCCC=O` [DC, Decanal] here?
**A.** 438%

**Q.** And the “Visual state of hair growth after 4 weeks” value (C57BL/6N mice; 4 weeks, vs negative control)?
**A.** hair was grown evenly and heartily in the larger number of individuals compared to the negative control group

**Q.** And the “Hair length compared to negative control, from the 2nd week” value (C57BL/6N mice; measured weekly)?
**A.** significantly increased from the 2nd week

**Q.** And the “Onset of hair growth (visual observation)” value (C57BL/6N mice; negative control: no hair after 2 weeks)?
**A.** hair began to grow from the 2nd week after application

**Q.** What about the “VEGF gene expression compared to negative control” value [1] of the same molecule?
**A.** significantly increased expression

**Q.** And the “HGF gene expression compared to negative control” value [2]?
**A.** significantly increased expression

**Q.** What about the “KGF gene expression compared to negative control” value [3] of the same molecule?
**A.** significantly increased expression

**Q.** What about the “IGF1 gene expression compared to negative control” value [4] of the same molecule?
**A.** significantly increased expression

**Q.** What about the “β-catenin protein expression effect compared to minoxidil group” value (β-catenin [5]) of the same molecule?
**A.** superior to the minoxidil group

**Q.** And the “Increase of β-catenin protein expression compared to negative control” value (β-catenin [5]; 3 mg/mouse/day)?
**A.** 79%

**Q.** What about the Nematicidal activity [6] of the same molecule?
**A.** strong nematicidal activity

**Q.** What about the “GSK3β gene expression compared to negative control” value [7] of the same molecule?
**A.** significantly decreased

**Q.** What about the “Axin gene expression compared to negative control” value (Axin) of the same molecule?
**A.** significantly decreased

**Q.** What about the “FZD1 gene expression compared to negative control” value [8] of the same molecule?
**A.** significantly increased

**Q.** What about the “β-catenin gene expression compared to negative control” value (β-catenin [9]) of the same molecule?
**A.** significantly increased

**Q.** What about the “Wnt10b gene expression compared to negative control” value (Wnt10b) of the same molecule?
**A.** significantly increased

**Q.** And the “LRP5 gene expression compared to negative control” value [10]?
**A.** significantly increased

**Q.** And the “Effect on embryos of sea urchins and copepods” value [11]?
**A.** a reproductive failure was induced by inducing apoptosis

**Q.** What about the “Histological appearance of hair follicles” value [12] of the same molecule?
**A.** the hair follicle was lengthened and appeared outside the skin

**Q.** What about the “Increase of hair follicle diameter compared to negative control” value ([12]; image analysis) of the same molecule?
**A.** 33%

**Q.** And the “Increase of number of hair follicles compared to negative control” value ([12]; magnification of 40)?
**A.** 193%

**Q.** And the “Body weight after 4 weeks of application, difference between experimental groups” value [13]?
**A.** not significantly different

**Q.** With `Nc1cc(N2CCCCC2)nc(N)[n+]1[O-]` [MXD, minoxidil, reference compound] as the molecule, how does the “Body weight after 4 weeks of application, difference between experimental groups” value [13] read?
**A.** not significantly different
